What is called IC50 is the midpoint of a concentration-inhibition curve.

The test concerns the target T1, human calcium receptor (Homo sapiens, UniProt P41180).
T1 construct: expressed in transfected cells
T1 sequence (P41180 20-1078): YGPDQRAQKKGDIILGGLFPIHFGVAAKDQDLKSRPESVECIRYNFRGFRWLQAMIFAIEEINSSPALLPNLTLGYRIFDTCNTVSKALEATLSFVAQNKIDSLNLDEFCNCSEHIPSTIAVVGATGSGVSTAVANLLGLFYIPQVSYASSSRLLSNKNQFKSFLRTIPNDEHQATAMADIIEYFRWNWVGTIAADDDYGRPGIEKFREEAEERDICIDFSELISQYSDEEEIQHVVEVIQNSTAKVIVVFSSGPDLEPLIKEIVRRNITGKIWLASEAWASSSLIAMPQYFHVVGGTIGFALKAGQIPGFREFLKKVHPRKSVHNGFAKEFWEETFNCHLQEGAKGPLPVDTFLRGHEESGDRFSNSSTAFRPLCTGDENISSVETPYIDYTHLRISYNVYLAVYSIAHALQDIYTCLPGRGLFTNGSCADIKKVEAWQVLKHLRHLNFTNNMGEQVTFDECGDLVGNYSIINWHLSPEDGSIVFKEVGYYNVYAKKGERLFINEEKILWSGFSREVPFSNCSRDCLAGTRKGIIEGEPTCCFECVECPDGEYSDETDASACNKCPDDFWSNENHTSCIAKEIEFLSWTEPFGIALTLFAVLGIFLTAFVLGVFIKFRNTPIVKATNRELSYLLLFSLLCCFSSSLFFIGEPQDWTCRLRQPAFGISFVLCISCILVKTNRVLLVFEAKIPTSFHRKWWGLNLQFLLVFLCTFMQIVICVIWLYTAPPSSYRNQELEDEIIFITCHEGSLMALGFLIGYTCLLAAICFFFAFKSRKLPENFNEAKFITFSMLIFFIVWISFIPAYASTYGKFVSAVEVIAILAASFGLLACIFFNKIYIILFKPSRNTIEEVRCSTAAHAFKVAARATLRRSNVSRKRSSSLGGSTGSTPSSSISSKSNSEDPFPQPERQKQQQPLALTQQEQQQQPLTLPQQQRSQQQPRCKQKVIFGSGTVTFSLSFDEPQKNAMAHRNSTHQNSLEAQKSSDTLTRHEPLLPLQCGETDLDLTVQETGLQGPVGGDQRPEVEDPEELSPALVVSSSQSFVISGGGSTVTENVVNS
Nature of the test: Calcium Receptor Inhibitor Assay. It counts as cell-based. The following applies: HEK 293 4.0–7 cells stably expressing the human calcium receptor; fluo-3; read-out: IC50 for blocking increases of intracellular Ca2+ elicited by extracellular Ca2+. In short, it runs like this:
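Intracellular Ca^2+ measured with fluo-3 at 37° C in stirred cell suspension. Buffer held 1 mM CaCl2 and 1 mg/mL D-glucose. Compound or vehicle added 90 seconds before extracellular Ca^2+ was raised from 1 to 2 mM, and calcilytic activity scored as concentration-dependent block of the intracellular Ca^2+ rise.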

Structures can show the parent of a compound that is named as a salt.

On to `COc1ccc(CC(C)(C)NCC(O)COc2cccc(OC)c2)cc1` (centres unmarked) [Compound 38, N-[2-Hydroxy-3-(3-methoxyphenoxy)propyl]-1,1-dimethyl-2-(4-methoxyphenyl)ethylamine Hydrochloride], for which the IC50 was less than 1 µM.
Regarding `COc1ccc(CC(C)(C)NC[C@@H](O)COc2ccccc2)cc1` (single isomer, unassigned) [Compound 32, (R) or (S)—N-(2-Hydroxy-3-phenoxypropyl)-1,1-dimethyl-2-(4-methoxyphenyl)ethylamine Hydrochloride], the IC50 is less than 10 µM.

The values above are taken from US7202261B2, “Calcilytic compounds” (NPS Pharmaceuticals, Inc., priority 1996, dated 2007).
